Data on 50 compounds can be found in ChEMBL document CHEMBL5236645, “Novel imidazo[1,5-a]quinoxaline derivatives: SAR, selectivity and modeling challenges en route to the identification of an α5-GABAA receptor NAM” (Bioorg Med Chem Lett, 2023).

One assay deals with T1, Gamma-aminobutyric acid receptor subunit alpha-5 (Homo sapiens, UniProt P31644).
T1 sequence (P31644 whole entry): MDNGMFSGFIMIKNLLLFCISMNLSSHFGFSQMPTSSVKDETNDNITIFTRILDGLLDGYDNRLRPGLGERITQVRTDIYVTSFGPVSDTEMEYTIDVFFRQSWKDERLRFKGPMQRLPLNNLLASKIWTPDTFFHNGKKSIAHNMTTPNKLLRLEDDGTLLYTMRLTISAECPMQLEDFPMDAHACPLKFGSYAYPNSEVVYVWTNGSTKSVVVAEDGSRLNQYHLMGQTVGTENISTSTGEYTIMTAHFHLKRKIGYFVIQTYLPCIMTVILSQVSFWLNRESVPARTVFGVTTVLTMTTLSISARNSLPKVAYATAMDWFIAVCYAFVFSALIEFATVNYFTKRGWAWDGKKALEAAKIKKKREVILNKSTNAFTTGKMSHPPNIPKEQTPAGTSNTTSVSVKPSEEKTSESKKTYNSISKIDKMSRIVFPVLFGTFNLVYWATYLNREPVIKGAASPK
Briefly: Displacement of flumazenil from alpha5 GABAA receptor (unknown origin).
Settings: not given
Compound `Cc1ncn2c1c(=O)n(Cc1cccnc1)c1ccccc12` displayed a Ki of 18 nM. Still for that read-out and setting: the value for `Cc1cccc2c1n1cncc1c(=O)n2Cc1cccnc1` was 86 nM; that for `Cc1ncc(Cn2c(=O)c3cncn3c3ccccc32)cn1` was 1.7 nM; that for `Cc1cc(Cc2ncn3c2c(=O)n(Cc2ccccn2)c2ccccc23)no1` was 379 nM. Regarding `O=c1c2c(CO)ncn2c2ccccc2n1Cc1cccnc1`, the affinity, expressed as Ki, was 52 nM. Turning to `Cc1ncccc1Cn1c(=O)c2cncn2c2ccccc21`, the Ki came to 107 nM. On the same count and under the same terms, the result for `O=c1c2cncn2c2c(Cl)cccc2n1Cc1cccnc1` reads 295 nM.

In turn, `Cc1cc(Cn2c(=O)c3cncn3c3ccccc32)no1` had an inhibition constant (Ki) of 56 nM. Same read-out and setting: the value for `COc1cc(Cl)c2c(c1)n(Cc1cccnc1)c(=O)c1cncn12` was 142 nM; that for `CN1C(=O)COc2cc(Cn3c(=O)c4cncn4c4ccccc43)ccc21` was 48 nM; that for `O=c1c2cncn2c2ccccc2n1Cc1cnccn1` was 33 nM.

For the compound `Cc1ccc(Cn2c(=O)c3cncn3c3ccccc32)cn1`, the Ki was 16 nM.

In turn, `Cn1c(=O)c2cncn2c2ccccc21` had a Ki of 2190 nM. On the same count and under the same terms, the result for `O=c1c2cncn2c2ccccc2n1Cc1cncnc1` reads 15 nM; that for `O=c1c2cncn2c2c(Cl)cc(Cl)cc2n1Cc1cccnc1`, 138 nM; that for `O=c1c2cncn2c2ccc(Cl)cc2n1Cc1cccnc1`, 11 nM. On the same count and under the same terms, the result for `O=c1c2cncn2c2cccnc2n1Cc1cccnc1` reads 122 nM; that for `COc1ccc(Cn2c(=O)c3cncn3c3ccccc32)cc1`, 244 nM; that for `O=c1c2cncn2c2ccc(Br)cc2n1Cc1cccnc1`, 89 nM. Regarding `O=c1c2cncn2c2ccccc2n1Cc1cccnc1`, the Ki was found to be 28 nM.

`Cc1cncc(Cn2c(=O)c3cncn3c3ccccc32)c1` gave a Ki of 17 nM.

Compound `COc1ccc2c(c1)n(Cc1cccnc1)c(=O)c1cncn12` had a Ki of 20 nM.

`CCc1ncn2c1c(=O)n(Cc1ccccn1)c1ccccc12` registered a Ki of 360 nM.

As for `Cc1ncn2c1c(=O)n(Cc1ccccn1)c1ccccc12`, the affinity corresponds to a Ki of 65 nM.

`O=c1c2c(Cl)ncn2c2ccccc2n1Cc1ccccn1` yielded a Ki of 12 nM. `CCOC(=O)c1ncn2c1c(=O)n(Cc1cccnc1)c1ccccc12` yielded a Ki of 0.3 nM. In the case of `Cc1ccncc1Cn1c(=O)c2cncn2c2ccccc21`, the Ki is 17 nM. The compound `Cc1cc(Cn2c(=O)c3c(C)ncn3c3ccccc32)no1` came in with a Ki of 30 nM. Regarding `CCOC(=O)c1ncn2c1c(=O)n(Cc1cccnc1)c1cccc(Cl)c12`, affinity was put at a Ki of 2 nM. `O=c1c2cncn2c2cc(Cl)ccc2n1Cc1cccnc1` had a Ki of 840 nM. Same read-out and setting: the value for `CC(C)(C)c1ccc2c(c1)n(Cc1cccnc1)c(=O)c1cncn12` was 210 nM; that for `Cn1cc(Cn2c(=O)c3cncn3c3ccccc32)cn1` was 64 nM.

The compound `COc1cc(Cl)c2c(c1)n(Cc1cnccc1C)c(=O)c1cncn12` gave a Ki of 687 nM. On the same count and under the same terms, the value for `O=c1c2cncn2c2ccccc2n1Cc1ccccn1` was 132 nM. The same measure, in the same setting: the value for `O=c1c2c(CC3CC3)ncn2c2ccccc2n1Cc1ccccn1` was 80 nM; that for `CCn1c(=O)c2cncn2c2ccccc21` was 1380 nM.

The target of another assay is T2, Gamma-aminobutyric acid receptor subunit alpha-1 (Homo sapiens, UniProt P14867).
T2 sequence (P14867 whole entry): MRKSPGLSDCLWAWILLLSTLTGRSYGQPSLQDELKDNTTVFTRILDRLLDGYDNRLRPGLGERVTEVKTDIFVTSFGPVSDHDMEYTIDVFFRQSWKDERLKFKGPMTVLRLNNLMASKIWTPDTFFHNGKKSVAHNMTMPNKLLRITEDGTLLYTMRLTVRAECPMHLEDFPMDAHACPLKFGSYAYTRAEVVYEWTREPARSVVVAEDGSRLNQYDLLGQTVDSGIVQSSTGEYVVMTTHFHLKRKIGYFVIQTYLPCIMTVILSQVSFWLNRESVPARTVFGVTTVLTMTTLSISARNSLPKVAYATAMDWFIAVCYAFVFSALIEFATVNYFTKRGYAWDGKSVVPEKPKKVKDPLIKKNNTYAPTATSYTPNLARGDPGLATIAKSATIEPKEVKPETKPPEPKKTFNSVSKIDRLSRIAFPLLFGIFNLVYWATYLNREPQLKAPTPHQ
Briefly: Displacement of flumazenil from alpha1 GABAA receptor (unknown origin).
Settings: not given
On to `Cc1ncn2c1c(=O)n(Cc1cccnc1)c1ccccc12`, for which the Ki was determined as 8 nM. `Cc1cccc2c1n1cncc1c(=O)n2Cc1cccnc1` displayed a Ki of 600 nM. Same read-out and setting: the value for `Cc1ncc(Cn2c(=O)c3cncn3c3ccccc32)cn1` was 3.6 nM; that for `O=c1c2c(CO)ncn2c2ccccc2n1Cc1cccnc1` was 100 nM; that for `O=c1c2cncn2c2c(Cl)cccc2n1Cc1cccnc1` was 2150 nM. Same read-out and setting: the result for `Cc1cc(Cn2c(=O)c3cncn3c3ccccc32)no1` reads 32 nM; that for `COc1cc(Cl)c2c(c1)n(Cc1cccnc1)c(=O)c1cncn12`, 670 nM; that for `CN1C(=O)COc2cc(Cn3c(=O)c4cncn4c4ccccc43)ccc21`, 74 nM. `O=c1c2cncn2c2ccccc2n1Cc1cnccn1` came in with an inhibition constant Ki of 55 nM. The same measure, in the same setting: the result for `Cc1ccc(Cn2c(=O)c3cncn3c3ccccc32)cn1` reads 35 nM; that for `O=c1c2cncn2c2ccccc2n1Cc1cncnc1`, 30 nM; that for `O=c1c2cncn2c2c(Cl)cc(Cl)cc2n1Cc1cccnc1`, 420 nM. The same measure, in the same setting: the result for `O=c1c2cncn2c2ccc(Cl)cc2n1Cc1cccnc1` reads 15 nM; that for `O=c1c2cncn2c2ccc(Br)cc2n1Cc1cccnc1`, 76 nM; that for `O=c1c2cncn2c2ccccc2n1Cc1cccnc1`, 32 nM. In the case of `Cc1cncc(Cn2c(=O)c3cncn3c3ccccc32)c1`, the inhibition constant Ki is 60 nM. Still for that read-out and setting: the result for `COc1ccc2c(c1)n(Cc1cccnc1)c(=O)c1cncn12` reads 120 nM. On the same count and under the same terms, the result for `Cc1ncn2c1c(=O)n(Cc1ccccn1)c1ccccc12` reads 16 nM; that for `O=c1c2c(Cl)ncn2c2ccccc2n1Cc1ccccn1`, 5.4 nM; that for `CCOC(=O)c1ncn2c1c(=O)n(Cc1cccnc1)c1ccccc12`, 0.4 nM. Still for that read-out and setting: the value for `Cc1ccncc1Cn1c(=O)c2cncn2c2ccccc21` was 60 nM. With `CCOC(=O)c1ncn2c1c(=O)n(Cc1cccnc1)c1cccc(Cl)c12`, affinity was put at a Ki of 7 nM.

`CC(C)(C)c1ccc2c(c1)n(Cc1cccnc1)c(=O)c1cncn12` had a Ki of 310 nM. Same read-out and setting: the result for `Cn1cc(Cn2c(=O)c3cncn3c3ccccc32)cn1` reads 123 nM; that for `COc1cc(Cl)c2c(c1)n(Cc1cnccc1C)c(=O)c1cncn12`, 2100 nM. On to `O=c1c2cncn2c2ccccc2n1Cc1ccccn1`, for which affinity was put at a Ki of 52 nM. Still for that read-out and setting: the value for `O=c1c2c(CC3CC3)ncn2c2ccccc2n1Cc1ccccn1` was 23 nM.

Another assay has as its target T3, Gamma-aminobutyric acid receptor subunit alpha-5 (Homo sapiens) (UniProt P31644).
T3 sequence (whole entry): T1 sequence (P31644 whole entry)
Briefly: Displacement of flumazenil from alpha5 GABAA receptor (unknown origin) at 1 uM relative to control.
Settings: not given
The compound `COc1ccc2c(c1)n1cncc1c(=O)n2Cc1cccnc1` showed an Activity of 18%. Still for that read-out and setting: the result for `N#Cc1cccc2c1n1cncc1c(=O)n2Cc1cccnc1` reads 0%; that for `O=c1c2cncn2c2ccccc2n1CCc1ccccn1`, 29%.

`O=C(c1ccc(Cn2c(=O)c3cncn3c3ccccc32)cn1)N1CCOCC1`: the Activity turned out to be 38%.

`O=c1c2cncn2c2ccccc2n1-c1ccccn1` had an Activity of 7%.

The assay is the same for the next values; noted with them: filed as modulator.
Compound `O=c1c2cncn2c2ccccc2n1Cc1ccccc1` registered an Activity of 61%. Still for that read-out and setting: the result for `O=c1c2cncn2c2ccccc2n1Cc1ccncc1` reads 62%; that for `Cc1noc(C)c1Cn1c(=O)c2c(C)ncn2c2ccccc21`, 65%; that for `O=c1c2cncn2c2cc(OC(F)(F)F)ccc2n1Cc1cccnc1`, 42%. Same read-out and setting: the value for `N#Cc1ccc(Cn2c(=O)c3cncn3c3ccccc32)cn1` was 61%.

`O=c1c2cncn2c2cc(F)c(F)cc2n1Cc1cccnc1` gave an Activity of 57%.

In the next assay the target is T3, Gamma-aminobutyric acid receptor subunit alpha-5 (Homo sapiens). Briefly: Displacement of flumazenil from alpha5 GABAA receptor (unknown origin) at 10 uM relative to control. The conditions noted are these: filed as modulator.
For `O=c1[nH]c2ccccc2n2cncc12`, the Activity is 53%.

For a further assay, the target named is T1, Gamma-aminobutyric acid receptor subunit alpha-5. The assay can be described thus: Negative allosteric modulation of alpha5 GABAA (unknown origin).
Settings: not given
Compound `Cc1cc(-c2nnc3c4ccccc4c(OCc4ccccn4)nn23)no1` gave a Ki of 0.5 nM.

Regarding `Cc1onc(-c2ccc(F)cc2)c1COc1ccc(C(=O)N2CCS(=O)(=O)CC2)cn1` [BASMISANIL], the affinity, expressed as Ki, was 4.4 nM.

The target in the next assay is T2, Gamma-aminobutyric acid receptor subunit alpha-1. The assay can be described thus: Negative allosteric modulation of alpha1 GABAA (unknown origin).
Settings: not given
As to `Cc1cc(-c2nnc3c4ccccc4c(OCc4ccccn4)nn23)no1`, the Ki came to 0.4 nM. Turning to `Cc1onc(-c2ccc(F)cc2)c1COc1ccc(C(=O)N2CCS(=O)(=O)CC2)cn1` [BASMISANIL], the affinity, expressed as Ki, was 1210 nM.

The Ki is a measure of affinity in units of concentration, obtained from inhibition or displacement.
